From paper PMC9516332 (Frontiers in Oncology, 2022)
pIC50: −log10 of the molar value. Read-outs that look alike come from different tables or passages of the source.

Test system: 134 cancer cell lines
Experiment: Cell viability assay (ATPlite, 72 hours), IC50 on cancer cell line panel

Structure (SMILES): CNC(=O)c1ccc(-c2cnc3ncc(Cc4ccc5ncccc5c4)n3n2)cc1F [capmatinib]
- pIC50 (HEC-6, read-out: IC50 in cell proliferation assay): < 4.50
- pIC50 (Homo sapiens, 769-P, read-out: IC50 in cell proliferation assay): < 4.50
- pIC50 (Homo sapiens, 786-0, read-out: IC50 in cell proliferation assay): < 4.50
- pIC50 (Homo sapiens, A 172, read-out: IC50 in cell proliferation assay): < 4.50
- pIC50 (Homo sapiens, A204, read-out: IC50 in cell proliferation assay): < 4.50
- pIC50 (Homo sapiens, A498, read-out: IC50 in cell proliferation assay): < 4.50
- pIC50 (Homo sapiens, A549, read-out: IC50 in cell proliferation assay): < 4.50
- pIC50 (Homo sapiens, A704, read-out: IC50 in cell proliferation assay): < 4.50
- pIC50 (Homo sapiens, A-375, read-out: IC50 in cell proliferation assay): < 4.50
- pIC50 (Homo sapiens, A-427, read-out: IC50 in cell proliferation assay): 4.53
- pIC50 (Homo sapiens, ACHN, read-out: IC50 in cell proliferation assay): < 4.50
- pIC50 (Homo sapiens, AN3-CA, read-out: IC50 in cell proliferation assay): < 4.50
- pIC50 (Homo sapiens, ASPC1, read-out: IC50 in cell proliferation assay): < 4.50
- pIC50 (Homo sapiens, AU565, read-out: IC50 in cell proliferation assay): 5.26
- pIC50 (Homo sapiens, BT-20, read-out: IC50 in cell proliferation assay): < 4.50
- pIC50 (Homo sapiens, BT-474, read-out: IC50 in cell proliferation assay): < 4.50
- pIC50 (Homo sapiens, BT-549, read-out: IC50 in cell proliferation assay): < 4.50
- pIC50 (Homo sapiens, BXPC-3, read-out: IC50 in cell proliferation assay): < 4.50
- pIC50 (Homo sapiens, C-33-A, read-out: IC50 in cell proliferation assay): < 4.50
- pIC50 (Homo sapiens, CAL-27, read-out: IC50 in cell proliferation assay): < 4.50
- pIC50 (Homo sapiens, CCF-STTG1, read-out: IC50 in cell proliferation assay): < 4.50
- pIC50 (Homo sapiens, CCRF-CEM, read-out: IC50 in cell proliferation assay): 4.55
- pIC50 (Homo sapiens, COLO 205, read-out: IC50 in cell proliferation assay): < 4.50
- pIC50 (Homo sapiens, COLO-829, read-out: IC50 in cell proliferation assay): < 4.50
- pIC50 (Homo sapiens, DLD-1, read-out: IC50 in cell proliferation assay): < 4.50
- pIC50 (Homo sapiens, DU-145, read-out: IC50 in cell proliferation assay): < 4.50
- pIC50 (Homo sapiens, DU-4475, read-out: IC50 in cell proliferation assay): 4.67
- pIC50 (Homo sapiens, Daoy, read-out: IC50 in cell proliferation assay): < 4.50
- pIC50 (Homo sapiens, DoTc2-4510, read-out: IC50 in cell proliferation assay): < 4.50
- pIC50 (Homo sapiens, EOL1, read-out: IC50 in cell proliferation assay): < 4.50
- pIC50 (Homo sapiens, FaDu, read-out: IC50 in cell proliferation assay): < 4.50
- pIC50 (Homo sapiens, G-361, read-out: IC50 in cell proliferation assay): < 4.50
- pIC50 (Homo sapiens, HCC827, read-out: IC50 in cell proliferation assay): 5.08
- pIC50 (Homo sapiens, HCC4006, read-out: IC50 in cell proliferation assay): < 4.50
- pIC50 (Homo sapiens, HCT-15, read-out: IC50 in cell proliferation assay): < 4.50
- pIC50 (Homo sapiens, HCT-116, read-out: IC50 in cell proliferation assay): < 4.50
- pIC50 (Homo sapiens, HEC-1, read-out: IC50 in cell proliferation assay): < 4.50
- pIC50 (Homo sapiens, HEC-1B, read-out: IC50 in cell proliferation assay): < 4.50
- pIC50 (Homo sapiens, HL-60, read-out: IC50 in cell proliferation assay): < 4.50
- pIC50 (Homo sapiens, HT, read-out: IC50 in cell proliferation assay): < 4.50
- pIC50 (Homo sapiens, HT-1080, read-out: IC50 in cell proliferation assay): < 4.50
- pIC50 (Homo sapiens, Hs746T, read-out: IC50 in cell proliferation assay): 8.91
- pIC50 (Homo sapiens, Hs-578T, read-out: IC50 in cell proliferation assay): < 4.50
- pIC50 (Homo sapiens, HuTu80, read-out: IC50 in cell proliferation assay): < 4.50
- pIC50 (Homo sapiens, J82, read-out: IC50 in cell proliferation assay): < 4.50
- pIC50 (Homo sapiens, Jurkat E6.1, read-out: IC50 in cell proliferation assay): < 4.50
- pIC50 (Homo sapiens, K562, read-out: IC50 in cell proliferation assay): < 4.50
- pIC50 (Homo sapiens, KATO III, read-out: IC50 in cell proliferation assay): < 4.50
- pIC50 (Homo sapiens, KG-1, read-out: IC50 in cell proliferation assay): < 4.50
- pIC50 (Homo sapiens, KLE, read-out: IC50 in cell proliferation assay): < 4.50
- pIC50 (Homo sapiens, KMS-11, read-out: IC50 in cell proliferation assay): 5.03
- pIC50 (Homo sapiens, KU812, read-out: IC50 in cell proliferation assay): < 4.50
- pIC50 (Homo sapiens, Kasumi 1, read-out: IC50 in cell proliferation assay): 4.60
- pIC50 (Homo sapiens, LC-2-ad, read-out: IC50 in cell proliferation assay): < 4.50
- pIC50 (Homo sapiens, LNCaP-Clone-FGC, read-out: IC50 in cell proliferation assay): < 4.50
- pIC50 (Homo sapiens, LS174T, read-out: IC50 in cell proliferation assay): < 4.50
- pIC50 (Homo sapiens, LS-411N, read-out: IC50 in cell proliferation assay): < 4.50
- pIC50 (Homo sapiens, LoVo, read-out: IC50 in cell proliferation assay): 8.73
- pIC50 (Homo sapiens, MCF7, read-out: IC50 in cell proliferation assay): < 4.50
